# Patent EP2857388A1, “Azoles containing sulfone” (Grünenthal GmbH, priority 2013, dated 2015)
# Target: T1, human B1R (Homo sapiens, UniProt P46663)
# T1 construct: expressed in transfected cells; host or cells: CHO K1 cells (Chinese Hamster Ovary), stably transfected
# T1 sequence (P46663 1-353): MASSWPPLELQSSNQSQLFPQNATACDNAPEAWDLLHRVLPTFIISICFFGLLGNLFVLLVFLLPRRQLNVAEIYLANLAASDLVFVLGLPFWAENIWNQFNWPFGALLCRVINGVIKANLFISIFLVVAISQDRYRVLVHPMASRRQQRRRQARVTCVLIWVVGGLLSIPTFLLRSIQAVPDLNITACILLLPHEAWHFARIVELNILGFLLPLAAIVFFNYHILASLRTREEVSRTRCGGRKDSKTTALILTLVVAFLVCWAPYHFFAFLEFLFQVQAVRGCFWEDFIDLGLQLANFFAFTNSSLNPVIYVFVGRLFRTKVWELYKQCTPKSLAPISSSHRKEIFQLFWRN
# Experiment: Functional assay at bradykinin receptor 1 (B1R): Ca2+ fluorescence (Fluo-4) in FLIPR/Novostar, antagonist mode
# Assay type: cell-based
# Settings: test substance 10 µM; CHO K1 cells stably transfected with human B1R gene (hB1R-Zellen); agonist Lys-Des-Arg9-Bradykinin at EC80; % inhibition relative to maximal achievable inhibition; read-out: % Inhibierung (human B1R) bei 10 µM
# Summary of the method: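 CHO K1 cells stably expressing human B1R were loaded with Fluo-4 and preincubated 6–20 min with test compound before Lys-Des-Arg9-bradykinin at its EC80. Peak fluorescence (ex 488/em 540 nm) gave % inhibition versus maximal inhibition; IC50 from several concentrations, n=2 or 3.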
row,Compound,inhibition at 10 µM
1,"COc1cc(C)c(S(=O)(=O)Cc2nnc(CC(=O)NC3CCNCC3)o2)c(C)c1 [CC-97, 2-[5-[[(4-Methoxy-2,6-dimethyl-phenyl)sulfonyl]-methyl]-[1,3,4]oxadiazol-2-yl]-N-piperidin-4-yl-acetamid]",98%
2,"Cc1cc(S(=O)(=O)Cc2noc(CC(=O)N(C)C3CCNCC3(C)C)n2)c(C)cc1Cl (stereo not shown) [CC-100, 2-[3-[[(4-Chlor-2,5-dimethyl-phenyl)sulfonyl]-methyl]-[1,2,4]oxadiazol-5-yl]-N-(3,3-dimethyl-piperidin-4-yl)-N-methyl-acetamid]",58%
3,"COc1cc(C)c(S(=O)(=O)Cc2nc(CC(=O)N(C)C3CCNCC3(C)C)no2)c(C)c1 (stereo not shown) [CC-101, N-(3,3-Dimethyl-piperidin-4-yl)-2-[5-[[(4-methoxy-2,6-dimethyl-phenyl)sulfonyl]-methyl]-[1,2,4]oxadiazol-3-yl]-N-methyl-acetamid]",100%
4,"COc1cc(C)c(S(=O)(=O)Cc2nc(CC(=O)NC3CCN(C)CC3(C)C)no2)c(C)c1 (stereo not shown) [CC-102, 2-[5-[[(4-Methoxy-2,6-dimethyl-phenyl)sulfonyl]-methyl]-[1,2,4]oxadiazol-3-yl]-N-(1,3,3-trimethyl-piperidin-4-yl)-acetamid]",100%
5,"COc1cc(C)c(S(=O)(=O)Cc2nnc(CC(=O)NC3CCN(C)CC3(C)C)o2)c(C)c1 (stereo not shown) [CC-111, 2-[5-[[(4-Methoxy-2,6-dimethyl-phenyl)sulfonyl]-methyl]-[1,3,4]oxadiazol-2-yl]-N-(1,3,3-trimethyl-piperidin-4-yl)-acetamid]",100%
6,"COc1cc(C)c(S(=O)(=O)Cc2cc(C)n(CC(=O)NC3CCC(c4ccncc4)CC3(C)C)n2)c(C)c1 (stereo not shown) [CC-127, N-(2,2-Dimethyl-4-pyridin-4-yl-cyclohexyl)-2-[3-[[(4-methoxy-2,6-dimethyl-phenyl)sulfonyl)-methyl]-5-methyl-1 H-pyrazol-1-yl]-acetamid]",68%
7,"COc1cc(C)c(S(=O)(=O)Cc2noc(C(=O)N3CCC(N4CCN(C)CC4)CC3)n2)c(C)c1 [CC-129, [3-[[(4-Methoxy-2,6-dimethyl-phenyl)sulfonyl]-methyl]-[1,2,4]oxadiazol-5-yl]-[4-(4-methyl-piperazin-1-yl)-piperidin-1-yl]-methanon]",100%
8,"COc1cc(C)c(S(=O)(=O)Cc2noc(CC(=O)N3CCC4(CCN(C)C4)C3)n2)c(C)c1 (stereo not shown) [CC-130, 2-[3-[[(4-Methoxy-2,6-dimethyl-phenyl)sulfonyl]-methyl]-[1,2,4]oxadiazol-5-yl]-1-(2-methyl-2,8-diazaspiro[4.4]nonan-8-yl)-ethanon]",99%
9,"COc1cc(C)c(S(=O)(=O)Cc2noc(CC(=O)N3CCN(c4ccncc4)CC3)n2)c(C)c1 [CC-133, 2-[3-[[(4-Methoxy-2,6-dimethyl-phenyl)sulfonyl]-methyl]-[1,2,4]oxadiazol-5-yl]-1-(4-pyridin-4-yl-piperazin-1-yl)-ethanon]",100%
10,"COc1cc(C)c(S(=O)(=O)Cc2noc(CC(=O)N3CCC4(CC3)CCN(c3ccncc3)C4)n2)c(C)c1 [CC-134, 2-[3-[[(4-Methoxy-2,6-dimethyl-phenyl)sulfonyl]-methyl]-[1,2,4]oxadiazol-5-yl]-1-(3-pyridin-4-yl-3,8-diazaspiro[4.5]decan-8-yl)-ethanon]",100%
11,"COc1cc(C)c(S(=O)(=O)Cc2noc(CC(=O)N3[C@@H]4CC[C@H]3CC(Oc3ccncc3)C4)n2)c(C)c1 (stereo partly drawn) [CC-135, 2-[3-[[(4-Methoxy-2,6-dimethyl-phenyl)sulfonyl]-methyl]-[1,2,4]oxadiazol-5-yl]-1-[(1S, 5R)-3-pyridin-4-yloxy-8-azabicyclo[3.2.1]octan-8-yl]-ethanon]",98%
12,"COc1cc(C)c(S(=O)(=O)Cc2noc(C(=O)N3CCN(c4ccncc4)CC3)n2)c(C)c1 [CC-136, [3-[[(4-Methoxy-2,6-dimethyl-phenyl)sulfonyl]-methyl]-[1,2,4]oxadiazol-5-yl]-(4-pyridin-4-yl-piperazin-1-yl)-methanon]",100%

# Second part, the compound after the results:
row,inhibition at 10 µM,Compound
1,100%,"Cc1cccc(Cl)c1S(=O)(=O)Cc1noc(CC(=O)NC2CCC(N3CCCC3)CC2)n1 (stereo not shown) [CC-93, 2-[3-[[(2-Chlor-6-methyl-phenyl)sulfonyl]-methyl]-[1,2,4]oxadiazol-5-yl]-N-(4-pyrrolidin-1-yl-cyclohexyl)-acetamid]"
2,100%,"COCCN1CCC(NC(=O)Cc2nc(CS(=O)(=O)c3c(C)cccc3Cl)no2)C(C)(C)C1 (stereo not shown) [CC-94, 2-[3-[[(2-Chlor-6-methyl-phenyl)sulfonyl]-methyl]-[1,2,4]oxadiazol-5-yl]-N-[1-(2-methoxy-ethyl)-3,3-dimethyl-piperidin-4-yl]-acetamid]"
3,100%,"Cc1cccc(Cl)c1S(=O)(=O)Cc1noc(CC(=O)NC2CCC(NC3CC3)CC2(C)C)n1 (stereo not shown) [CC-95, 2-[3-[[(2-Chlor-6-methyl-phenyl)sulfonyl]-methyl]-[1,2,4]oxadiazol-5-yl]-N-[4-(cyclopropylamino)-2,2-dimethyl-cyclohexyl]-acetamid]"
4,100%,"Cc1cccc(Cl)c1S(=O)(=O)Cc1noc(CC(=O)NC2CCN(C)CC2(C)C)n1 (stereo not shown) [CC-96, 2-[3-[[(2-Chlor-6-methyl-phenyl)sulfonyl]-methyl]-[1,2,4]oxadiazol-5-yl]-N-(1,3,3-trimethyl-piperidin-4-yl)-acetamid]"
5,100%,"Cc1cccc(Cl)c1S(=O)(=O)Cc1noc(CC(=O)NC2CCC(N3CCN(C)CC3)CC2(C)C)n1 (stereo not shown) [CC-98, 2-[3-[[(2-Chlor-6-methyl-phenyl)sulfonyl]-methyl]-[1,2,4]oxadiazol-5-yl]-N-[2,2-dimethyl-4-(4-methyl-piperazin-1-yl)-cyclohexyl]-acetamid]"
6,88%,"Cc1cc(S(=O)(=O)Cc2noc(CC(=O)NC3CCN(C)CC3(C)C)n2)c(C)cc1Cl (stereo not shown) [CC-105, 2-[3-[[(4-Chlor-2,5-dimethyl-phenyl)sulfonyl]-methyl]-[1,2,4]oxadiazol-5-yl]-N-(1,3,3-trimethyl-piperidin-4-yl)-acetamid]"
7,82%,"CC1(C)CC(N2CCCC2)CCC1NC(=O)Cc1nc(CS(=O)(=O)c2cccc(Cl)c2Cl)no1 (stereo not shown) [CC-106, 2-[3-[[(2,3-Dichlor-phenyl)sulfonyl]-methyl]-[1,2,4]oxadiazol-5-yl]-N-(2,2-dimethyl-4-pyrrolidin-1-yl-cyclohexyl)-acetamid]"
8,88%,"Cc1cccc(Cl)c1S(=O)(=O)Cc1noc(CC(=O)N(C2CCC(N(C)C)CC2)C2CC2)n1 (stereo not shown) [CC-108, 2-[3-[[(2-Chlor-6-methyl-phenyl)sulfonyl]-methyl]-[1,2,4]oxadiazol-5-yl]-N-cyclopropyl-N-(4-dimethylamino-cyclohexyl)-acetamid]"
9,100%,"CC1(C)CC(c2ccncc2)CCC1NC(=O)Cc1nc(CS(=O)(=O)c2cccc(Cl)c2Cl)no1 (stereo not shown) [CC-109, 2-[3-[[(2,3-Dichlor-phenyl)sulfonyl]-methyl]-[1,2,4]oxadiazol-5-yl]-N-(2,2-dimethyl-4-pyridin-4-yl-cyclohexyl)-acetamid]"
10,87%,"Cc1cccc(Cl)c1S(=O)(=O)Cc1noc(CC(=O)N(C)C2CCNCC2(C)C)n1 (stereo not shown) [CC-110, 2-[3-[[(2-Chlor-6-methyl-phenyl)sulfonyl]-methyl]-[1,2,4]oxadiazol-5-yl]-N-(3,3-dimethyl-piperidin-4-yl)-N-methyl-acetamid]"
11,67%,"CN(C)C1CCC(N(C(=O)Cc2nc(CS(=O)(=O)c3cccc(Cl)c3Cl)no2)C2CC2)CC1 (stereo not shown) [CC-112, N-Cyclopropyl-2-[3-[[(2,3-dichlor-phenyl)sulfonyl]-methyl]-[1,2,4]oxadiazol-5-yl]-N-(4-dimethyl-amino-cyclohexyl)-acetamid]"
12,100%,"COc1cc(C)c(S(=O)(=O)Cc2nc(CC(=O)N(C3CCC(N(C)C)CC3)C3CC3)no2)c(C)c1 (stereo not shown) [CC-116, N-Cyclopropyl-N-(4-dimethylamino-cyclohexyl)-2-[5-[[(4-methoxy-2,6-dimethyl-phenyl)sulfonyl]-methyl]-[1,2,4]oxadiazol-3-yl]-acetamid]"
13,93%,"COc1cc(C)c(S(=O)(=O)Cc2c(C)nn(CC(=O)N(C3CCC(N(C)C)CC3)C3CC3)c2C)c(C)c1 (stereo not shown) [CC-118, N-Cyclopropyl-N-(4-dimethylamino-cyclohexyl)-2-[4-[[(4-methoxy-2,6-dimethyl-phenyl)sulfonyl]-methyl]-3,5-dimethyl-1H-pyrazol-1-yl]-acetamid]"
14,100%,"COc1cc(C)c(S(=O)(=O)Cc2nnc(CC(=O)N(C3CCC(N(C)C)CC3)C3CC3)o2)c(C)c1 (stereo not shown) [CC-124, N-Cyclopropyl-N-(4-dimethylamino-cyclohexyl)-2-[5-[[(4-methoxy-2,6-dimethyl-phenyl)sulfonyl]-methyl]-[1,3,4]oxadiazol-2-yl]-acetamid]"
15,100%,"COc1cc(C)c(S(=O)(=O)Cc2noc(CC(=O)N3CCC(N4CCN(C)CC4)CC3)n2)c(C)c1 [CC-131, 2-[3-[[(4-Methoxy-2,6-dimethyl-phenyl)sulfonyl]-methyl]-[1,2,4]oxadiazol-5-yl]-1-[4-(4-methyl-piperazin-1-yl)-piperidin-1-yl]-ethanon]"
16,99%,"Cc1cccc(Cl)c1S(=O)(=O)Cc1noc(C(=O)N2CCN(c3ccncc3)CC2)n1 [CC-137, [3-[[(2-Chlor-6-methyl-phenyl)sulfonyl]-methyl]-[1,2,4]oxadiazol-5-yl]-(4-pyridin-4-yl-piperazin-1-yl)-methanon]"
